According to PubChem BioAssay AID651578 (Southern Research Specialized Biocontainment Screening …, 2012):
Calls of active or inactive are those of the source. The rule behind the calls is not given here.

Test system: VEEV TC-83 virus titer reduction in cells
Experiment: VEEV TC-83 titer reduction, cell-based, secondary screen, TC-83 strain, set 4 (AID 651578)
Conditions: at 5 µM; active compounds read low

Compound: CCN1CCN(Cc2nc3ccc([N+](=O)[O-])cc3c(=O)n2-c2ccccc2F)CC1
- log virus titer change: -3.36

Compound: COc1cccc(-n2c(CN3CCNCC3)nc3ccc([N+](=O)[O-])cc3c2=O)c1
- log virus titer change: -0.354 (inactive)

Compound: O=c1c2cc([N+](=O)[O-])ccc2nc(CN2CCNCC2)n1-c1ccsc1
- log virus titer change: -0.997 (inactive)

Compound: COc1ccc(-n2c(CN3CCNCC3)nc3ccc([N+](=O)[O-])cc3c2=O)cc1
- log virus titer change: -7.41
